The target in test [1] is T1, Protein kinase C iota type (Homo sapiens) (UniProt P41743).
T1 sequence (whole entry): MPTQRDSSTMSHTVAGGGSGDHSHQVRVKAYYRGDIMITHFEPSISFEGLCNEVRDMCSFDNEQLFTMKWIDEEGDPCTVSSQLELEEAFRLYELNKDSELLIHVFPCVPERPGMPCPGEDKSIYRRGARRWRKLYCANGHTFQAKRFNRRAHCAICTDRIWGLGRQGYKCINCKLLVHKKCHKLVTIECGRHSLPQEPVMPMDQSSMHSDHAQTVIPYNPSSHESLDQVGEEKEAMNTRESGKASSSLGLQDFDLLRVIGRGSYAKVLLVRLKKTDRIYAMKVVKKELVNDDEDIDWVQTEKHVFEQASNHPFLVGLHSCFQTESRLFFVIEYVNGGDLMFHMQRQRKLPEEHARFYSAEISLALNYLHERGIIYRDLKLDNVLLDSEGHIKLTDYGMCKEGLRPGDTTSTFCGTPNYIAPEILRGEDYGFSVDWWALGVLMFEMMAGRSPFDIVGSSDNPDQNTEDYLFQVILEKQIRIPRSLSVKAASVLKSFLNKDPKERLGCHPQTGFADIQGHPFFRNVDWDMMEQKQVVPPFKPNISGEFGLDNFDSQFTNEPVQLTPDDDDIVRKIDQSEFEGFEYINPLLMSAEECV
The experiment in a line: Selectivity interaction (Ambit KINOMEscan and KiNATiv profiling in Jurkat cells) EUB0000090b PRKCI. The format is cell-based. The note with it: at 1 µM.

Test [2] deals with Serine/threonine-protein kinase PAK 4 (Homo sapiens, UniProt O96013). The experiment in a line: Selectivity interaction (Kinase panel (DSF assay)) EUB0001558a PAK4. A general note: In DSF a fluorescence change marks the thermal transition of the protein.
Test [3] deals with Tyrosine-protein kinase SYK (Homo sapiens, UniProt P43405). The experiment in a line: Selectivity interaction (Millipore kinase profiler) EUB0000124b SYK. The following applies: at 10 µM.
Test [4] addresses T2, Myosin-IIIb (Homo sapiens) (UniProt Q8WXR4).
T2 sequence (whole entry): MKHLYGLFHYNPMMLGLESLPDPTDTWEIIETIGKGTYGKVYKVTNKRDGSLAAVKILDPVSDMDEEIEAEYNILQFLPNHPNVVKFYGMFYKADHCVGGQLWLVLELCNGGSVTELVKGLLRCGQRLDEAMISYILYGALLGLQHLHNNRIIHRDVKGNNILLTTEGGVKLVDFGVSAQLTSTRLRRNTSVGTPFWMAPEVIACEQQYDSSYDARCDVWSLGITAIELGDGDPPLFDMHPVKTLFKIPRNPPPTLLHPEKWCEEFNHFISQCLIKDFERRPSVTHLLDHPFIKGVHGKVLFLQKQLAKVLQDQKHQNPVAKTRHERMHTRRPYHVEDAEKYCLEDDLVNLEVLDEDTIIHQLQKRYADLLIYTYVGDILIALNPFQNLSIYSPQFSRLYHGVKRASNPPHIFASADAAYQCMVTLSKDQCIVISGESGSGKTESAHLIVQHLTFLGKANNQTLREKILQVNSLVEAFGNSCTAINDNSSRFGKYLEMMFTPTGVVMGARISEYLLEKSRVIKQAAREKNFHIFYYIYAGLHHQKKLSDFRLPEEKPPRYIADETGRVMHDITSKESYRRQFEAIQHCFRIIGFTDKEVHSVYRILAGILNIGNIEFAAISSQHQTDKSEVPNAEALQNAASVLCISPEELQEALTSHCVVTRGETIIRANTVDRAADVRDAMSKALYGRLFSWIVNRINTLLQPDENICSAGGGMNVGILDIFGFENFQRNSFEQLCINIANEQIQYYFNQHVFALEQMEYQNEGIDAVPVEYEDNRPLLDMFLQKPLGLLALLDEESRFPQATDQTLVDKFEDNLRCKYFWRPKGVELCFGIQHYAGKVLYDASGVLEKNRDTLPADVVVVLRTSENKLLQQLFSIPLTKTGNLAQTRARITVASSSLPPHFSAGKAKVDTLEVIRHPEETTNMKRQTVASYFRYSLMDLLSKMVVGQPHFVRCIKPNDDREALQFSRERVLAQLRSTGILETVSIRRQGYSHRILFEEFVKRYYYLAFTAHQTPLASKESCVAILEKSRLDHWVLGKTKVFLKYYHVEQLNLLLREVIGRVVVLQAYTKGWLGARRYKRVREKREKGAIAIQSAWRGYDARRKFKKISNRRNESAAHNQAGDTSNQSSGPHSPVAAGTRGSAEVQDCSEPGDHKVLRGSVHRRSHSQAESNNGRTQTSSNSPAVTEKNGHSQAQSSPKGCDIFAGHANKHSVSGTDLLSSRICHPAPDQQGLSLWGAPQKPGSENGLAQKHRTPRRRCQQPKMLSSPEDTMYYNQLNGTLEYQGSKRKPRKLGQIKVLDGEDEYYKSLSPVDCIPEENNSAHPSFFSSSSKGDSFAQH
The experiment in a line: Selectivity interaction (KinomeScan (DiscoverX)) EUB0001049a MYO3B. The following applies: at 1 µM.

Sequence of Serine/threonine-protein kinase PAK 4 (O96013 whole entry, looked up): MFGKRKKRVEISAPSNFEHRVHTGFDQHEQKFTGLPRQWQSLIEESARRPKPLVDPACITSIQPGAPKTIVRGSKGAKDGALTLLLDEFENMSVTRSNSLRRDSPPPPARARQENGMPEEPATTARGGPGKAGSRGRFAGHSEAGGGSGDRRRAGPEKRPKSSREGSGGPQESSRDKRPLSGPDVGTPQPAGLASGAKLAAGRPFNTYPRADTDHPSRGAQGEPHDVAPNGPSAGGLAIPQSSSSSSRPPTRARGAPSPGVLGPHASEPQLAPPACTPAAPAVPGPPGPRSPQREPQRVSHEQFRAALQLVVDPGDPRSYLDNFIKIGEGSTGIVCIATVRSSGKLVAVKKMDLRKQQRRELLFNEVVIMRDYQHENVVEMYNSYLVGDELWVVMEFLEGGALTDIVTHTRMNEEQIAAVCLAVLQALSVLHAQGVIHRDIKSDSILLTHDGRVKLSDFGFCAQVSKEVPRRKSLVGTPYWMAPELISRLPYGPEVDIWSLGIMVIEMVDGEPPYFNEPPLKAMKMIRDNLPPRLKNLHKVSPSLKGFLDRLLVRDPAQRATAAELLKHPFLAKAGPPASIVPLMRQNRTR

Compound `CN(C)C/C=C/C(=O)Nc1ccc(C(=O)N2CCCC(Nc3ncc(Cl)c(-c4c[nH]c5ccccc45)n3)C2)cc1` (centres undefined) registered a % of control in test [1] of 98%.
In turn, `CC(C)(O)[C@H](F)CN1Cc2cc(NC(=O)c3cnn4cccnc34)c(N3CCOCC3)cc2C1=O` came in with a dTM in test [2] of 1.1 K.
`CC(=O)Nc1cccc(-n2c(=O)n(C3CC3)c(=O)c3c(Nc4ccc(I)cc4F)n(C)c(=O)c(C)c32)c1` returned a % of control in test [3] of 74%.
`COc1cc(Nc2nc(C)cc(-c3cnn4nc(OC)ccc34)n2)cc(C(F)(F)F)c1` gave a % of control in test [4] of 100%.

Source of the values: ChEMBL document CHEMBL5465560, “Selectivity Literature for EUbOPEN Chemogenomic Library” (2024).
